Experimental data: PubChem BioAssay (NCI)
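GI50: concentration for 50% inhibition of growth. TGI: total growth inhibition.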

Key:
Test in all cases: inhibition of tumour cell growth, NCI panel, 384-well format
MOLT-4 leukemia = test system: MOLT-4 leukemia
UACC-257 melanoma = test system: UACC-257 melanoma
DU-145 prostate = test system: DU-145 prostate
SK-OV-3 ovarian = test system: SK-OV-3 ovarian
NCI-H226 lung = test system: NCI-H226 lung
HCT-116 colon = test system: HCT-116 colon
786-0 renal = test system: 786-0 renal
IGROV1 ovarian = test system: IGROV1 ovarian
MDA-MB-468 breast = test system: MDA-MB-468 breast
COLO 205 colon = test system: COLO 205 colon
NCI-H23 lung = test system: NCI-H23 lung
HOP-62 NSCLC = test system: HOP-62 NSCLC
UO-31 renal = test system: UO-31 renal
NCI/ADR-RES ovarian = test system: NCI/ADR-RES ovarian
RPMI-8226 leukemia = test system: RPMI-8226 leukemia
CAKI-1 renal = test system: CAKI-1 renal
TK-10 renal = test system: TK-10 renal
NCI-H322M lung = test system: NCI-H322M lung
SK-MEL-5 melanoma = test system: SK-MEL-5 melanoma
OVCAR-3 ovarian = test system: OVCAR-3 ovarian
CCRF-CEM leukemia = test system: CCRF-CEM leukemia
HOP-92 NSCLC = test system: HOP-92 NSCLC
SF-539 CNS = test system: SF-539 CNS
PC-3 prostate = test system: PC-3 prostate
HS 578T breast = test system: HS 578T breast
SF-295 CNS = test system: SF-295 CNS
A498 renal = test system: A498 renal
HL-60(TB) leukemia = test system: HL-60(TB) leukemia
OVCAR-5 ovarian = test system: OVCAR-5 ovarian
T-47D breast = test system: T-47D breast
HCC-2998 colon = test system: HCC-2998 colon
SW-620 colon = test system: SW-620 colon
ACHN renal = test system: ACHN renal
SK-MEL-28 melanoma = test system: SK-MEL-28 melanoma
A549 NSCLC = test system: A549 NSCLC
HCT-15 colon = test system: HCT-15 colon
MDA-MB-435 melanoma = test system: MDA-MB-435 melanoma
MCF7 breast = test system: MCF7 breast
U251 glioblastoma = test system: U251 glioblastoma
OVCAR-8 ovarian = test system: OVCAR-8 ovarian
M14 melanoma = test system: M14 melanoma
SN12C renal = test system: SN12C renal
LOX IMVI melanoma = test system: LOX IMVI melanoma
SK-MEL-2 melanoma = test system: SK-MEL-2 melanoma
HT29 colon = test system: HT29 colon
NCI-H522 lung = test system: NCI-H522 lung
EKVX NSCLC = test system: EKVX NSCLC

## Cc1cc2c(cc1C)NC1=C(N2)OC(c2c3ccccc3cc3ccccc23)C1=O (stereo not drawn)
MOLT-4 leukemia
  GI50: 0.193 µM
  TGI: 0.337 µM
UACC-257 melanoma
  GI50: 0.716 µM
  TGI: 3.29 µM
DU-145 prostate
  GI50: 0.429 µM
  TGI: 1.43 µM
SK-OV-3 ovarian
  GI50: 0.253 µM
  TGI: 0.732 µM
NCI-H226 lung
  GI50: 0.743 µM
  TGI: 1.86 µM
HCT-116 colon
  GI50: 0.286 µM
  TGI: 0.759 µM
786-0 renal
  GI50: 0.261 µM
  TGI: 0.63 µM
IGROV1 ovarian
  GI50: 0.953 µM
  TGI: 2.63 µM
MDA-MB-468 breast
  GI50: 0.218 µM
  TGI: 0.436 µM
COLO 205 colon
  GI50: 0.786 µM
  TGI: 1.68 µM
NCI-H23 lung
  GI50: 0.288 µM
  TGI: 0.763 µM
HOP-62 NSCLC
  GI50: 0.325 µM
  TGI: 0.825 µM
UO-31 renal
  GI50: 1.94 µM
  TGI: 9.3 µM
NCI/ADR-RES ovarian
  GI50: 0.194 µM
  TGI: 0.355 µM
RPMI-8226 leukemia
  GI50: 0.223 µM
  TGI: 0.39 µM
CAKI-1 renal
  GI50: 0.75 µM
  TGI: 5.69 µM
TK-10 renal
  GI50: 0.548 µM
  TGI: 7.54 µM
NCI-H322M lung
  GI50: 1.22 µM
  TGI: 7.46 µM
SK-MEL-5 melanoma
  GI50: 0.603 µM
  TGI: 1.15 µM
OVCAR-3 ovarian
  GI50: 0.237 µM
  TGI: 0.582 µM
CCRF-CEM leukemia
  GI50: 0.194 µM
  TGI: 0.341 µM
HOP-92 NSCLC
  GI50: 0.398 µM
  TGI: 1.49 µM
SF-539 CNS
  GI50: 0.17 µM
  TGI: 0.38 µM
PC-3 prostate
  GI50: 0.422 µM
  TGI: 1.44 µM
HS 578T breast
  GI50: 0.178 µM
  TGI: 0.355 µM
SF-295 CNS
  GI50: 0.208 µM
  TGI: 0.495 µM
A498 renal
  GI50: 0.319 µM
  TGI: 0.924 µM
HL-60(TB) leukemia
  GI50: 0.212 µM
  TGI: 0.363 µM
OVCAR-5 ovarian
  GI50: 1.3 µM
  TGI: 5.22 µM
T-47D breast
  GI50: 1.07 µM
  TGI: 6.25 µM
HCC-2998 colon
  GI50: 0.688 µM
  TGI: 1.57 µM
SW-620 colon
  GI50: 0.454 µM
  TGI: 7.47 µM
ACHN renal
  GI50: 0.546 µM
  TGI: 13.6 µM
SK-MEL-28 melanoma
  GI50: 0.573 µM
  TGI: 4.41 µM
A549 NSCLC
  GI50: 0.626 µM
  TGI: 2.2 µM
HCT-15 colon
  GI50: 0.261 µM
  TGI: 0.711 µM
MDA-MB-435 melanoma
  GI50: 0.217 µM
  TGI: 0.425 µM
MCF7 breast
  GI50: 0.397 µM
  TGI: 1.91 µM
U251 glioblastoma
  GI50: 0.281 µM
  TGI: 0.691 µM
OVCAR-8 ovarian
  GI50: 0.29 µM
  TGI: 0.794 µM
M14 melanoma
  GI50: 0.29 µM
  TGI: 0.653 µM
SN12C renal
  GI50: 0.652 µM
  TGI: 4.13 µM
LOX IMVI melanoma
  GI50: 0.361 µM
  TGI: 1.35 µM
SK-MEL-2 melanoma
  GI50: 0.224 µM
  TGI: 0.415 µM
HT29 colon
  GI50: 0.303 µM
  TGI: 0.988 µM
NCI-H522 lung
  GI50: 0.192 µM
  TGI: 0.385 µM
EKVX NSCLC
  GI50: 0.431 µM
  TGI: 6.44 µM

## O=C(O)c1ccc(CN2CCC(CN[C@@H]3C[C@H]3c3ccccc3)CC2)cc1
MOLT-4 leukemia
  GI50: > 100 µM
  TGI: > 100 µM
UACC-257 melanoma
  GI50: > 100 µM
  TGI: > 100 µM
DU-145 prostate
  GI50: > 100 µM
  TGI: > 100 µM
SK-OV-3 ovarian
  GI50: > 100 µM
  TGI: > 100 µM
NCI-H226 lung
  GI50: > 100 µM
  TGI: > 100 µM
HCT-116 colon
  GI50: > 100 µM
  TGI: > 100 µM
786-0 renal
  GI50: > 100 µM
  TGI: > 100 µM
IGROV1 ovarian
  GI50: > 100 µM
  TGI: > 100 µM
MDA-MB-468 breast
  GI50: > 100 µM
  TGI: > 100 µM
COLO 205 colon
  GI50: > 100 µM
  TGI: > 100 µM
NCI-H23 lung
  GI50: > 100 µM
  TGI: > 100 µM
HOP-62 NSCLC
  GI50: > 100 µM
  TGI: > 100 µM
UO-31 renal
  GI50: > 100 µM
  TGI: > 100 µM
NCI/ADR-RES ovarian
  GI50: > 100 µM
  TGI: > 100 µM
RPMI-8226 leukemia
  GI50: > 100 µM
  TGI: > 100 µM
CAKI-1 renal
  GI50: > 100 µM
  TGI: > 100 µM
TK-10 renal
  GI50: > 100 µM
  TGI: > 100 µM
NCI-H322M lung
  GI50: > 100 µM
  TGI: > 100 µM
SK-MEL-5 melanoma
  GI50: > 100 µM
  TGI: > 100 µM
OVCAR-3 ovarian
  GI50: > 100 µM
  TGI: > 100 µM
CCRF-CEM leukemia
  GI50: > 100 µM
  TGI: > 100 µM
HOP-92 NSCLC
  GI50: > 100 µM
  TGI: > 100 µM
SF-539 CNS
  GI50: > 100 µM
  TGI: > 100 µM
PC-3 prostate
  GI50: > 100 µM
  TGI: > 100 µM
HS 578T breast
  GI50: > 100 µM
  TGI: > 100 µM
SF-295 CNS
  GI50: > 100 µM
  TGI: > 100 µM
A498 renal
  GI50: > 100 µM
  TGI: > 100 µM
HL-60(TB) leukemia
  GI50: > 100 µM
  TGI: > 100 µM
OVCAR-5 ovarian
  GI50: > 100 µM
  TGI: > 100 µM
T-47D breast
  GI50: > 100 µM
  TGI: > 100 µM
HCC-2998 colon
  GI50: > 100 µM
  TGI: > 100 µM
SW-620 colon
  GI50: > 100 µM
  TGI: > 100 µM
ACHN renal
  GI50: > 100 µM
  TGI: > 100 µM
SK-MEL-28 melanoma
  GI50: > 100 µM
  TGI: > 100 µM
A549 NSCLC
  GI50: > 100 µM
  TGI: > 100 µM
HCT-15 colon
  GI50: > 100 µM
  TGI: > 100 µM
MDA-MB-435 melanoma
  GI50: > 100 µM
  TGI: > 100 µM
MCF7 breast
  GI50: > 100 µM
  TGI: > 100 µM
U251 glioblastoma
  GI50: > 100 µM
  TGI: > 100 µM
OVCAR-8 ovarian
  GI50: > 100 µM
  TGI: > 100 µM
M14 melanoma
  GI50: > 100 µM
  TGI: > 100 µM
SN12C renal
  GI50: > 100 µM
  TGI: > 100 µM
LOX IMVI melanoma
  GI50: > 100 µM
  TGI: > 100 µM
SK-MEL-2 melanoma
  GI50: > 100 µM
  TGI: > 100 µM
HT29 colon
  GI50: > 100 µM
  TGI: > 100 µM
NCI-H522 lung
  GI50: > 100 µM
  TGI: > 100 µM
EKVX NSCLC
  GI50: > 100 µM
  TGI: > 100 µM
